Experimental data published in ChEMBL document CHEMBL1142267, “Optimization of alpha-ketooxazole inhibitors of fatty acid amide hydrolase” (J Med Chem, 2008).

Biological target: T1, Fatty-acid amide hydrolase 1 (Rattus norvegicus, UniProt P97612)
T1 sequence (P97612 whole entry): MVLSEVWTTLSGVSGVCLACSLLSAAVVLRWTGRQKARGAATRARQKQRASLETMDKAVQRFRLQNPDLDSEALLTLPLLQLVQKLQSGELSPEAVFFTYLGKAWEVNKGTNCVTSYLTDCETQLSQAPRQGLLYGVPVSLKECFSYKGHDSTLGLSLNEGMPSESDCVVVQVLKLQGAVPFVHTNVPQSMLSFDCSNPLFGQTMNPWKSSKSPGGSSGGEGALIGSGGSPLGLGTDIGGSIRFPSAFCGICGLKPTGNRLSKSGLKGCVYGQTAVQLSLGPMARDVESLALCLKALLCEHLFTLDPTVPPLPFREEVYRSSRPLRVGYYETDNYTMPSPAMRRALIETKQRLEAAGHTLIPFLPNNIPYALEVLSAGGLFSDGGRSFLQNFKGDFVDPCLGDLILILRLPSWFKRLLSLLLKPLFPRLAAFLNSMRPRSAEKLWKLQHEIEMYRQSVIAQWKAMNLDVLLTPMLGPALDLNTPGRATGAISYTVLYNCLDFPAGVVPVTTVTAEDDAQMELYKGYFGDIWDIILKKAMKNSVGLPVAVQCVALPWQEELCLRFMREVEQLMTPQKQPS
Test: Inhibition of rat recombinant FAAH expressed in Escherichia coli

SMILES	Ki [nM]	IC50 [nM]
O=C(CCc1ccc(Oc2ccccc2)cc1)c1ncc(I)o1	10	
O=C(O)c1cccc(-c2cnc(CCCc3ccc(-c4ccccc4)cc3)o2)n1	10000	
O=C(O)c1cccc(-c2cnc(C(=O)CCc3ccc(OC4CCNCC4)cc3)o2)n1	11000	
NC(=O)c1cnc(C(=O)CCc2ccc(Oc3ccccc3)cc2)o1	6.6	
O=C(CCCCCCc1ccccc1)c1ncco1		2500
COC(=O)c1ccc(-c2cnc(C(O)CCc3ccc(-c4ccccc4)cc3)o2)nc1 (configuration not stated)	1100	
O=C(O)c1ccc(-c2cnc(CCCc3ccc(-c4ccccc4)cc3)o2)nc1	20000	
O=C(O)c1cccc(-c2cnc(C(=O)CCc3ccc(-c4ccc(CN5CCCC5)cc4)cc3)o2)n1	130	
COC(=O)c1cccc(-c2cnc(C(=O)CCc3ccc(OC4CCN(C(=O)OC(C)(C)C)CC4)cc3)o2)n1	32	
O=C(CCc1ccc(-c2ccccc2)cc1)c1ncc(C(=O)C(F)(F)F)o1	8	
CC(C)(C)OC(=O)N1CCC(Oc2ccc(CCC(=O)c3ncc(-c4cccc(C(=O)O)n4)o3)cc2)CC1	120	
COC(=O)c1cccc(-c2cnc(CCCc3ccc(-c4ccccc4)cc3)o2)n1	7000	
CN1CCN(Cc2ccc(-c3ccc(CCC(=O)c4ncc(-c5cccc(C(=O)O)n5)o4)cc3)cc2)CC1	1200	
NC(=O)c1cccc(-c2cnc(CCCc3ccc(-c4ccccc4)cc3)o2)n1	4000	
COC(=O)c1cccc(-c2cnc(C(O)CCc3ccc(-c4ccccc4)cc3)o2)n1 (configuration not stated)	9000	
O=C(CCc1ccc(-c2ccc(CN3CCCCC3)cc2)cc1)c1ncco1	25	
COC(=O)c1cccc(-c2cnc(C(=O)CCc3ccc(OC4CCNCC4)cc3)o2)n1	4500	
NC(=O)c1cccc(-c2cnc(C(O)CCc3ccc(-c4ccccc4)cc3)o2)n1 (configuration not stated)	20000	
NC(=O)c1ccc(-c2cnc(CCCc3ccc(-c4ccccc4)cc3)o2)nc1	30000	
O=C(O)c1cccc(-c2cnc(C(O)CCc3ccc(-c4ccccc4)cc3)o2)n1 (configuration not stated)	1100	
NC(=O)c1ccc(-c2cnc(C(O)CCc3ccc(-c4ccccc4)cc3)o2)nc1 (configuration not stated)	> 1000	
COC(=O)c1ccc(-c2cnc(CCCc3ccc(-c4ccccc4)cc3)o2)nc1	50000	
CNC(=O)c1cnc(C(=O)CCc2ccc(Oc3ccccc3)cc2)o1	11	
O=C(O)c1ccc(-c2cnc(C(O)CCc3ccc(-c4ccccc4)cc3)o2)nc1 (configuration not stated)	10000	
CN(C)C(=O)c1cnc(C(=O)CCc2ccc(COc3ccccc3)cc2)o1	6.7	

More lines, in order of falling Ki, values ahead:

Ki [nM]	IC50 [nM]	SMILES
5.4		CN(C)C(=O)c1cnc(C(=O)CCc2ccc(Oc3ccccc3)cc2)o1
4.5		NC(=O)c1cnc(C(=O)CCc2ccc(COc3ccccc3)cc2)o1
4		O=C(CCc1ccc(COc2ccccc2)cc1)c1ncc(I)o1
4		O=C(CCc1ccc(-c2ccccc2)cc1)c1ncc(I)o1
3.6		CNC(=O)c1cnc(C(=O)CCc2ccc(COc3ccccc3)cc2)o1
3.5		NC(=O)c1cnc(C(=O)CCc2ccc(-c3ccccc3)cc2)o1
3		CN(C)C(=O)c1cnc(C(=O)CCc2ccc(-c3ccccc3)cc2)o1
3		CSc1cnc(C(=O)CCc2ccc(-c3ccccc3)cc2)o1
2.9		N#Cc1cccc(-c2cnc(C(=O)CCc3ccc(-c4ccccc4)cc3)o2)n1
1.7		COC(=O)c1cnc(C(=O)CCc2ccc(Oc3ccccc3)cc2)o1
1.6		COC(=O)c1cnc(C(=O)CCc2ccc(COc3ccccc3)cc2)o1
1.5		COC(=O)c1cnc(C(=O)CCc2ccc(-c3ccccc3)cc2)o1
1.5		COC(=O)c1cc(-c2cnc(C(=O)CCc3ccc(-c4ccccc4)cc3)o2)ccn1
1.3		NC(=O)c1ccc(-c2cnc(C(=O)CCc3ccc(-c4ccccc4)cc3)o2)nc1
1.2		CS(=O)(=O)c1cnc(C(=O)CCc2ccc(-c3ccccc3)cc2)o1
0.7		O=C(CCc1ccc(-c2ccccc2)cc1)c1ncc(C(F)(F)F)o1
0.56		N#Cc1cccc(-c2cnc(C(=O)CCc3ccc(COc4ccccc4)cc3)o2)n1
